These results are taken from patent US20240002391A1, “4-ALKOXYPYRROLO[2,1-F][1,2,4]TRIAZINES AND PREPARATION AND USES THEREOF” (BioSplice Therapeutics, Inc., priority 2022, published 2024).

The structures appear in SMILES notation.

This assay concerns the target recombinant DYRK1A kinase (Homo sapiens (Human), UniProt Q13627). The assay can be described thus: DYRK1A kinase assay (Ser/Thr 18 peptide Z-lyte FRET). Format: biochemical. The conditions noted are these: DYRK1A kinase activity, Z-lyte Ser/Thr 18 peptide, 15 μM ATP; method text calls the value IC50; read-out: EC50 (the source's name). The essentials:
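Steps: combine 0.25 μg/mL kinase, 15 μM ATP and 4 μM peptide with test compound; incubate 1 h at room temperature; add diluted development reagent for another hour; read coumarin and fluorescein emission at Ex 400. The emission ratio yields percent phosphorylation, from which IC50 is derived.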

With `COc1nc(N[C@H]2CC[C@](C)(O)CC2)nn2ccc(-c3ccc4ncc(C#N)n4c3)c12` [Compound 103, 6-(2-((trans-4-hydroxy-4-methylcyclohexyl)amino)-4-methoxypyrrolo[2,1-f][1,2,4]triazin-5-yl)imidazo[1,2-a]pyridine-3-carbonitrile], the IC50 was found to be 5.9 nM.

`COc1nc(N[C@H]2C[C@@](C)(NC(=O)C3(C#N)CC3)C2)nn2ccc(-c3ccc4ncnn4c3)c12` [Compound 562, N-((1s,3s)-3-((5-([1,2,4]Triazolo[1,5-a]pyridin-6-yl)-4-methoxypyrrolo[2,1-f][1,2,4]triazin-2-yl)amino)-1-methylcyclobutyl)-1-cyanocyclopropane-1-carboxamide]: the IC50 came to 1.1 nM.

`COc1nc(N[C@H]2C[C@H](C(C)(C)O)C2)nn2ccc(-c3ccc4nccnc4c3)c12` [Compound 328, 2-(trans-3-((4-Methoxy-5-(quinoxalin-6-yl)pyrrolo[2,1-f][1,2,4]triazin-2-yl)amino)cyclobutyl)propan-2-ol]: the IC50 was found to be 5.4 nM.

For the compound `COc1nc(N[C@H]2C[C@](C)(NC(C)=O)C2)nn2ccc(-c3ccc4nnn(C)c4c3)c12` [Compound 206, N-(trans-3-((4-Methoxy-5-(1-methyl-1H-benzo[d][1,2,3]triazol-6-yl)pyrrolo[2,1-f][1,2,4]triazin-2-yl)amino)-1-methylcyclobutyl)acetamide], the IC50 amounted to 0.4 nM.

`COc1nc(N[C@@H]2CCC[C@@H]2O)nn2ccc(-c3cnc4nccn4c3)c12` [Compound 942, (1S,2R)-2-((5-(Imidazo[1,2-a]pyrimidin-6-yl)-4-methoxypyrrolo[2,1-f][1,2,4]triazin-2-yl)amino)cyclopentan-1-ol]: the IC50 was 18.9 nM.

In the case of `CNC(=O)c1cnn2ccc(-c3ccn4nc(N[C@H]5CC[C@](C)(O)CC5)nc(OC)c34)cc12` [Compound 401, 5-(2-(((1r,4r)-4-Hydroxy-4-methylcyclohexyl)amino)-4-methoxypyrrolo[2,1-f][1,2,4]triazin-5-yl)-N-methylpyrazolo[1,5-a]pyridine-3-carboxamide], the IC50 worked out at 2.7 nM.

For the compound `COc1nc(NC2CC3(CCN(C(C)=O)CC3)C2)nn2ccc(-c3ccn4nccc4c3)c12` [Compound 39, 1-(2-((4-Methoxy-5-(pyrazolo[1,5-a]pyridin-5-yl)pyrrolo[2,1-f][1,2,4]triazin-2-yl)amino)-7-azaspiro[3.5]nonan-7-yl)ethan-1-one], the IC50 was determined as 2.9 nM.

Regarding `COc1nc(N[C@H]2C[C@@H](OCCO)C2)nn2ccc(-c3ccc4nnn(C)c4c3)c12` [Compound 201, 2-(cis-3-((4-Methoxy-5-(1-methyl-1H-benzo[d][1,2,3]triazol-6-yl)pyrrolo[2,1-f][1,2,4]triazin-2-yl)amino)cyclobutoxy)ethan-1-ol], the IC50 came to 2 nM.

`CCC(=O)N1CC[C@@H](Nc2nc(OC)c3c(-c4ccc5nnn(CC(F)F)c5c4)ccn3n2)[C@@H](F)C1` [Compound 772, 1-((3S,4R)-4-((5-(1-(2,2-Difluoroethyl)-1H-benzo[d][1,2,3]triazol-6-yl)-4-methoxypyrrolo[2,14][1,2,4]triazin-2-yl)amino)-3-fluoropiperidin-1-yl)propan-1-one]: the IC50 was determined as 2 nM.

On to `COc1nc(N[C@H]2CC[C@](C)(O)CC2)nn2ccc(-c3ccc4nc(C)n(CCO)c4c3)c12` [Compound 172, trans-4-((5-(1-(2-Hydroxyethyl)-2-methyl-1H-benzo[d]imidazol-6-yl)-4-methoxypyrrolo[2,1-f][1,2,4]triazin-2-yl)amino)-1-methylcyclohexan-1-ol], for which the IC50 was determined as 2.5 nM.

`COc1nc(N[C@H]2C[C@](C)(NC(C)=O)C2)nn2ccc(-c3ccn4nccc4c3)c12` [Compound 96, N-(trans-3-((4-Methoxy-5-(pyrazolo[1,5-a]pyridin-5-yl)pyrrolo[2,1-f][1,2,4]triazin-2-yl)amino)-1-methylcyclobutyl)acetamide]: the IC50 amounted to 1 nM.
